Measured values as given in patent publication US6087119A, “Method for determining the catalytic activity of factor IXa” (Roche Diagnostics GmbH, priority 1996, dated 2000).
“And” between values parts separate entries of the source, which are not always exact repeats. Equal values may be shown once. Read-outs that look alike come from different tables or passages of the source.

Experiments:
thrombin (bovine) = thrombin (bovine) (Bos taurus, UniProt P00735); details: thrombin 0.045 μmol/l, MeSO2-D-HHT-Gly-Arg-pNA 1.02 mmol/l, pH 7.4
Source text: Thrombin Test Mixture (Concentration in the Test)
(§1) 42 mmol/l Tris-HCl, pH 7.4
(§2) 1.02 mmol/l MeSO2 -D-HHT-Gly-Arg-pNA
0.045 μmol/l thrombin (bovine)
(§3) 0-50% ethanol or ethylene glycol

[1] = target: plasma kallikrein (human) (Homo sapiens, UniProt P03952); details: 10-20% ethanol
Chain of plasma kallikrein (human) (P03952 391-638 limits assumed): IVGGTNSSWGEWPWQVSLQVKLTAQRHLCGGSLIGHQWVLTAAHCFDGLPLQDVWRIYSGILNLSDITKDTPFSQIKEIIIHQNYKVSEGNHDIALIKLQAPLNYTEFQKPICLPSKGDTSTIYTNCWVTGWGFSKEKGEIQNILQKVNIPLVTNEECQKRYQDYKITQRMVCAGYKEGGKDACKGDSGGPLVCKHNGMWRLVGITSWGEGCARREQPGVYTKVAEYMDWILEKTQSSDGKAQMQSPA
Chain of plasma kallikrein (human) (P03952 20-390 partner limits assumed): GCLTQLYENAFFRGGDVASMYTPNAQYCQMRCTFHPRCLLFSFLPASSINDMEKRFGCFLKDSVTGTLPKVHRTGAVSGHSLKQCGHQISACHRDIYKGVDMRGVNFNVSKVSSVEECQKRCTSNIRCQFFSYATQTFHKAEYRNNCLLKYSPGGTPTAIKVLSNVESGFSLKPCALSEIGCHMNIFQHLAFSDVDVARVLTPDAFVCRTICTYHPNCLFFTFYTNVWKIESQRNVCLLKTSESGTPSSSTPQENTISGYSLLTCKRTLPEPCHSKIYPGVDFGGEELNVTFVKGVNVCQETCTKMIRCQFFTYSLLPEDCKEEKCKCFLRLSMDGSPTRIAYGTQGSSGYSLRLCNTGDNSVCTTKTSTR
Source text: Plasma Kallikrein Test Mixture (Concentration in the Test)
as §1, §2
0.0176 U/ml plasma kallikrein (human)
as §3

rFIXa (human) [2] = target: T1, rFIXa (human) (Homo sapiens, UniProt P00740); assay: Influence of alcohols and organic solvents on the activity of rFIXa, chromogenic peptide substrates; assay type: biochemical; set-up: coding for the FIX protease domain from amino acid position 181 to 415; Met (ATG start codon) (N); made in house; details: for V/V0: pH 7.4
Procedure: The reaction was started by adding FIXa.
MeSO2 -D-HHT-Gly-Arg-pNA→MeSO2 -D-HHT-Gly-Arg+pNA measurement signal: pNA
0.48 μmol/l rFIXa (human)
0-50% (alcohol or organic solvent)
The ratio V/V0 was calculated to illustrate the stimulation of the catalytic activity of rFIXa.
V0, reaction rate without additives
V, reaction rate in the presence of additives
Test Mixture Chromogenic (Concentration in the Test)
Target sequence in this assay (P00740 227-461 limits assumed): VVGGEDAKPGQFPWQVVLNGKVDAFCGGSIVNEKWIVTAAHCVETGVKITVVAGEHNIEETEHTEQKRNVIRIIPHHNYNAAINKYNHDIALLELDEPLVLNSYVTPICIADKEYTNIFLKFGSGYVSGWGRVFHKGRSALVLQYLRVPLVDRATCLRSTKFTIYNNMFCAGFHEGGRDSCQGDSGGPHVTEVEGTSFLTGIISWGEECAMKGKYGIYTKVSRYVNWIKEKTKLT
Target sequence in this assay (P00740 131-226 partner limits assumed): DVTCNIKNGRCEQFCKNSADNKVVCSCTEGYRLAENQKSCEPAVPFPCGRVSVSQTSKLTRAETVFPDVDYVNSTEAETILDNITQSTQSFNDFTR

FXa (bovine) = FXa (bovine) (Bos taurus, UniProt P00743); details: FXa 0.088 μmol/l, MeSO2-D-HHT-Gly-Arg-pNA 1.02 mmol/l, pH 7.4
Chain of FXa (bovine) (P00743 234-492 limits assumed): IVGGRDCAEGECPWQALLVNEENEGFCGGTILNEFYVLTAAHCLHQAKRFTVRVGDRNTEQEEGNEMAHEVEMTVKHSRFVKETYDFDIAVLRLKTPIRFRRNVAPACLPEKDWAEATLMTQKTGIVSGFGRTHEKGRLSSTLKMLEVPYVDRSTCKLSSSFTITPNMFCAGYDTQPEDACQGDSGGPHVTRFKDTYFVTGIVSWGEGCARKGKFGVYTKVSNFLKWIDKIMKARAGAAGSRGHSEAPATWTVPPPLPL
Chain of FXa (bovine) (P00743 41-180 partner limits assumed): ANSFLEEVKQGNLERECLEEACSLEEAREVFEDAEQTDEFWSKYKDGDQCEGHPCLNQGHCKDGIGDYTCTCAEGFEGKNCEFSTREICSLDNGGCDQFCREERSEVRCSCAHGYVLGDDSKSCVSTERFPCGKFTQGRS
Source text: FXa Test Mixture (concentration in the Test)
as §1, §2
0.088 μmol/l FXa (bovine)
as §3

FXIa (human) = FXIa (human) (Homo sapiens, UniProt P03951); details: FXIa 0.0012 μmol/l, MeSO2-D-HHT-Gly-Arg-pNA 1.02 mmol/l, pH 7.4
Chain of FXIa (human) (P03951 388-625 limits assumed): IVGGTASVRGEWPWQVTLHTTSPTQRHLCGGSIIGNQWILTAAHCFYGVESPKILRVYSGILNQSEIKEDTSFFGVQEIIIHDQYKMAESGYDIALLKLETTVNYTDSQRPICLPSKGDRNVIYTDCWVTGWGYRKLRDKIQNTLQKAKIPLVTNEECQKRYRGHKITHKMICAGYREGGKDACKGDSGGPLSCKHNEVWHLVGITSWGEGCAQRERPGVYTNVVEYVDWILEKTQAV
Chain of FXIa (human) (P03951 19-387 partner limits assumed): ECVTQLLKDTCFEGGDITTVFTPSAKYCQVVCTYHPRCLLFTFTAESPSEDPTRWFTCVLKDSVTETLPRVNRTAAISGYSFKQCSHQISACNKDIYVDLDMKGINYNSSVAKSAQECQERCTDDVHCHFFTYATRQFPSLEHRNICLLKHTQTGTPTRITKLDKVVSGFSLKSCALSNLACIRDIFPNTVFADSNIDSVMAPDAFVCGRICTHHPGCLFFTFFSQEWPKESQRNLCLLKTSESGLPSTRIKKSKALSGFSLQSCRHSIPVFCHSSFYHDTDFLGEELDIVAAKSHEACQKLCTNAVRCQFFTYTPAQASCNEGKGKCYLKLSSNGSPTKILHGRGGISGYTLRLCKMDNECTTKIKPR
Source text: FXIa Test Mixture (Concentration in the Test)
as §1, §2
0.0012 μmol/l FXIa (human)
as §3

FXIIa (human) = FXIIa (human) (Homo sapiens, UniProt P00748); details: FXIIa 0.0045 U/ml, MeSO2-D-HHT-Gly-Arg-pNA 1.02 mmol/l, pH 7.4
Chain of FXIIa (human) (P00748 373-615 limits assumed, other chains not shown): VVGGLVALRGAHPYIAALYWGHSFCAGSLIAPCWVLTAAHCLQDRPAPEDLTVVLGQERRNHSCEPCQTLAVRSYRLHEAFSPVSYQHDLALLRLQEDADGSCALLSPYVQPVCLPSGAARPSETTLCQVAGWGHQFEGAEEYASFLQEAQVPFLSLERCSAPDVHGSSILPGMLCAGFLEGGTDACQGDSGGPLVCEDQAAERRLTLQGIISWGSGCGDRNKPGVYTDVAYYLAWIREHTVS
Source text: FXIIa Test Mixture (Concentration in the Test)
as §1, §2
0.0045 U/ml FXIIa (human)
as §3

native FIXa (human) = native FIXa (human) (Homo sapiens, UniProt P00740); details: pH 7.4; for V/V0: MeSO2-D-HHT-Gly-Arg-pNA 1.02 mmol/l, 0.14 μmol/l native FIXa
Chain of native FIXa (human) (P00740 227-461 limits assumed): as the sequence (P00740 227-461 limits assumed) above
Chain of native FIXa (human) (P00740 47-191 partner limits assumed): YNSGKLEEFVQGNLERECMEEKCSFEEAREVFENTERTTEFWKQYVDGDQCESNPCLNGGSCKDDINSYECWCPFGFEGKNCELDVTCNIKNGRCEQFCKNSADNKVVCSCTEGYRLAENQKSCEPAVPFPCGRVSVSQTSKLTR
Procedure: The FIXa test was carried out with recombinantly produced native human FIXa as a sample and the peptide substrate MeSO2 -D-HHT-Gly-Arg-pNA (Pefachrom tPA, Pentapharm Ltd., Basel, Switzerland) or other chromogenic/fluorogenic substrates of the R-D-Xxx-Gly-Arg-pNA type (EP-B 0 034 122) in Tris-HCl buffer and the substances to be tested (alcohol, solvents and inhibitors). The reaction was started by adding FIXa.
The test mixture was incubated at room temperature (25° C.) in a microtitre plate and the change in absorbance (ΔA/min) was measured at 405 nm using an ELISA reader. The activity and the kinetic constants were determined from the linear initial slope according to the Michaelis-Menten equation.
as §2
0.14 μmol/l native FIXa (human)
as §3
FIXa Test Mixture (Concentration in the Test)

rFIXa (human) [3] = target: T1, rFIXa (human); details: fluorogenic MeSO2-D-CHA-Gly-Arg-AMC 0.51 mmol/l, 0.08 μmol/l rFIXa, pH 7.4
Source text: The stimulation of human rFIXa by ethanol and ethylene glycol was examined using the peptide substrates MeSO2 -D-HHT-Gly-Arg-pNA (Pefachrom tPA, Pentapharm Ltd., Basel, Switzerland), MOC-D-Nle-Gly-Arg-pNA (Chromozym X, Boehringer Mannheim GmbH, Mannheim, Germany, Cat.No. 789763), MeSO2 -D-CHG-Gly-Arg-pNA (Pentapharm Ltd., Basel, Switzerland), MeSO2 -D-CHA-Gly-Arg-pNA (Pentapharm Ltd., Basel, Switzerland) and MeSO2 -D-CHA-Gly-Arg-AMC (Pentapharm Ltd., Basel, Switzerland).
Test Mixture Fluorogenic (Concentration in the Test)
0.51 mmol/l MeSO2 -D-CHA-Gly-Arg-AMC
0.08 μmol/l rFIXa (human)
Target sequence in this assay (P00740 227-461): as the sequence (P00740 227-461 limits assumed) above
Target sequence in this assay (P00740 131-226): as the sequence (P00740 131-226 partner limits assumed) above

CCO [Ethanol] gave a V/V0 (thrombin (bovine); 8% alcohol) of 0.846, a V/V0 (thrombin (bovine); 16% alcohol) of 0.685 and a V/V0 (thrombin (bovine); 25% alcohol) of 0.507. The V/V0 (thrombin (bovine); 33% alcohol) was 0.343, the V/V0 (thrombin (bovine); 41% alcohol) was 0.184 and the V/V0 (thrombin (bovine); 50% alcohol) was 0.087. The “activation of plasma kallikrein (in words)” value [1] was “slight activation”, the V/V0 (rFIXa (human) [2]; 8% additive, MOC-D-Nle-Gly-Arg-pNA 0.82 mmol/l, 0.48 μmol/l rFIXa) was 3.63 and the V/V0 (rFIXa (human) [2]; 8% additive, MeSO2-D-CHA-Gly-Arg-pNA 1.02 mmol/l, 0.48 μmol/l rFIXa) was 3.30. The V/V0 (rFIXa (human) [2]; 8% additive, MeSO2-D-CHG-Gly-Arg-pNA 1.02 mmol/l, […] rFIXa) was 3.33, the V/V0 (rFIXa (human) [2]; 8% additive, MeSO2-D-HHT-Gly-Arg-pNA 1.02 mmol/l, 0.48 μmol/l rFIXa) was 2.99 and the V/V0 (rFIXa (human) [2]; 16% additive, MOC-D-Nle-Gly-Arg-pNA 0.82 mmol/l, 0.48 μmol/l rFIXa) was 7.28. It also gave a V/V0 (rFIXa (human) [2]; 16% additive, MeSO2-D-CHA-Gly-Arg-pNA 1.02 mmol/l, 0.48 μmol/l rFIXa) of 5.40, a V/V0 (rFIXa (human) [2]; 16% additive, MeSO2-D-CHG-Gly-Arg-pNA 1.02 mmol/l, […] rFIXa) of 6.02 and a V/V0 (rFIXa (human) [2]; 16% additive, MeSO2-D-HHT-Gly-Arg-pNA 1.02 mmol/l, 0.48 μmol/l rFIXa) of 5.52. It also gave a V/V0 (rFIXa (human) [2]; 25% additive, MOC-D-Nle-Gly-Arg-pNA 0.82 mmol/l, 0.48 μmol/l rFIXa) of 9.95, a V/V0 (rFIXa (human) [2]; 25% additive, MeSO2-D-CHA-Gly-Arg-pNA 1.02 mmol/l, 0.48 μmol/l rFIXa) of 5.38 and a V/V0 (rFIXa (human) [2]; 25% additive, MeSO2-D-CHG-Gly-Arg-pNA 1.02 mmol/l, […] rFIXa) of 6.16. It also gave a V/V0 (rFIXa (human) [2]; 25% additive, MeSO2-D-HHT-Gly-Arg-pNA 1.02 mmol/l, 0.48 μmol/l rFIXa) of 5.57, a V/V0 (rFIXa (human) [2]; 33% additive, MOC-D-Nle-Gly-Arg-pNA 0.82 mmol/l, 0.48 μmol/l rFIXa) of 7.51 and a V/V0 (rFIXa (human) [2]; 33% additive, MeSO2-D-CHA-Gly-Arg-pNA 1.02 mmol/l, 0.48 μmol/l rFIXa) of 4.30. For the same compound, the V/V0 (rFIXa (human) [2]; 33% additive, MeSO2-D-CHG-Gly-Arg-pNA 1.02 mmol/l, […] rFIXa) was 4.50, the V/V0 (rFIXa (human) [2]; 33% additive, MeSO2-D-HHT-Gly-Arg-pNA 1.02 mmol/l, 0.48 μmol/l rFIXa) was 3.35 and the V/V0 (rFIXa (human) [2]; 41% additive, MOC-D-Nle-Gly-Arg-pNA 0.82 mmol/l, 0.48 μmol/l rFIXa) was 3.15. The V/V0 (rFIXa (human) [2]; 50% additive, MeSO2-D-CHA-Gly-Arg-pNA 1.02 mmol/l, 0.48 μmol/l rFIXa) was 0.89, the V/V0 (rFIXa (human) [2]; 50% additive, MeSO2-D-CHG-Gly-Arg-pNA 1.02 mmol/l, […] rFIXa) was 0.87 and the V/V0 (rFIXa (human) [2]; 50% additive, MeSO2-D-HHT-Gly-Arg-pNA 1.02 mmol/l, 0.48 μmol/l rFIXa) was 0.606. For the same compound, the V/V0 (rFIXa (human) [2]; 50% additive, MeSO2-D-HHT-Gly-Arg-pNA 1.02 mmol/l, 0.48 μmol/l rFIXa, listed as ethanol) was 0.61 and 0.60, the “stimulation of the activity of rFIXa” value (rFIXa (human) [2]; concentration range of 15-40%) was 5-15 fold and the V/V0 (FXa (bovine); 8% alcohol) was 0.899. For the same compound, the V/V0 (FXa (bovine); 16% alcohol) was 0.752, the V/V0 (FXa (bovine); 25% alcohol) was 0.510 and the V/V0 (FXa (bovine); 41% alcohol) was 0.203. It also gave a V/V0 (FXa (bovine); 50% alcohol) of 0.086, a V/V0 (FXIa (human); 8% alcohol) of 1.08 and a V/V0 (FXIa (human); 16% alcohol) of 0.845. It also gave a V/V0 (FXIa (human); 25% alcohol) of 0.657, a V/V0 (FXIa (human); 33% alcohol) of 0.469 and a V/V0 (FXIa (human); 41% alcohol) of 0.353. The V/V0 (FXIa (human); 50% alcohol) was 0.258, the V/V0 (FXIIa (human); 8% alcohol) was 0.904 and the V/V0 (FXIIa (human); 16% alcohol) was 0.579. It also gave a V/V0 (FXIIa (human); 25% alcohol) of 0.187, a V/V0 (FXIIa (human); 33% alcohol) of 0.051 and a V/V0 (FXIIa (human); 41% alcohol) of 0.009. For the same compound, the V/V0 (FXIIa (human); 50% alcohol) was 0, the “activation among plasma kallikrein, FXIIa, FXIa, FIXa, FXa and thrombin (in words)” value (native FIXa (human); 0-50% alcohol, MeSO2-D-HHT-Gly-Arg-pNA) was “only FIXa is activated” and the V/V0 (native FIXa (human); 8% additive) was 3.40. For the same compound, the V/V0 (native FIXa (human); 16% additive) was 5.46, the V/V0 (native FIXa (human); 25% additive) was 5.96 and the V/V0 (native FIXa (human); 33% additive) was 4.82. For the same compound, the V/V0 (native FIXa (human); 41% additive) was 1.69, the V/V0 (native FIXa (human); 50% additive) was 1.17 and the V/V0 (rFIXa (human) [3]; 8% additive) was 2.09. For the same compound, the V/V0 (rFIXa (human) [3]; 16% additive) was 2.50, the V/V0 (rFIXa (human) [3]; 33% additive) was 1.01 and the V/V0 (rFIXa (human) [3]; 41% additive) was 0.70. It also gave a V/V0 (rFIXa (human) [3]; 50% additive) of 0.58.
